From US20160095343A1, “Synbiotic Product” (Tate & Lyle Ingredients Americas LLC, priority 2010, published 2016)

Experiments:
Format in all cases: cell-based
[1] = test system: B. coagulans strain GBI-30; test: Comparison of maximum growth of B. coagulans on various carbohydrates (Example 2); details: carbohydrate at ~10 g/L, against no added carbohydrates
From the text: The maximum growth of probiotic B. coagulans strain GBI-30 (ATCC Designation Number PTA-6086; U.S. Pat. No. 6,849,256) (Ganeden Biotech, Inc.; Mayfield Heights, Ohio) was compared on the carbohydrates arabinoxylan, xylose, and dextrose at ˜10 g/L and against addition of no carbohydrates (FIG. 2).

B. licheniformis = test: Growth of probiotic Bacillus on prebiotic carbohydrates (Example 1); details: carbohydrate at 10 g/L
Method: (§1) Four commercial spore-forming probiotic Bacillus strains were grown on prebiotic carbohydrates at 10 g/L. (See FIG. 1). The four strains were B. pumilus, B. licheniformis, B. subtilis, and B. coagulans. The prebiotic carbohydrates were high molecular weight arabinoxylan (AX), xylose (X), soluble fiber dextrin (waxy) (SFDw), soluble corn fiber (85) (SCF), and polydextrose (PDX). As a measure of the significance of the data shown in FIG. 1, Table 1 indicates P values for the B. coagulans data.

B. coagulans = test: as above; details: carbohydrate at 10 g/L
Method: as §1

B. pumilus = test: as above; details: carbohydrate at 10 g/L
Method: as §1

B. subtilis = test: as above; details: carbohydrate at 10 g/L
Method: as §1

Which results are given for `O=C[C@H](O)[C@@H](O)[C@H](O)CO` [xylose]?
maximum growth of B. coagulans strain GBI-30 on the carbohydrate [1]: strong growth; growth of B. licheniformis on the prebiotic carbohydrate (B. licheniformis): limited growth; growth of B. coagulans on the prebiotic carbohydrate (B. coagulans): grew; growth of B. pumilus on the prebiotic carbohydrate (B. pumilus): did not appear able to grow; growth of B. subtilis on the prebiotic carbohydrate (B. subtilis): grew
